Results from US20240216395A1, “19-NOR C3,3-DISUBSTITUTED C21 -N-PYRAZOLYL STEROID FOR USE IN TREATING MAJOR DEPRESSIVE DISORDER AND […]” (priority 2021, published 2024).

Legend:
[1] = tested on: nondependent, recreational users of CNS depressants; assay: Abuse potential main study, treatment phase: subjective VAS measures (Drug Liking, Overall Drug Liking, Take Drug Again, High, Good/Bad/Any Drug Effects, Alertness/Drowsiness, Drug Similarity)
[2] = tested on: nondependent, recreational users of CNS depressants; assay: Abuse potential main study, treatment phase: TEAEs; type: in vivo, human; settings: treatment phase
Experimental: The main study consisted of 4 phases (FIG. 30B). The screening phase was a 1-day visit occurring within 21 days of the beginning of the qualification phase. The qualification phase was a 4-day, inpatient period to ensure participants could discriminate between alprazolam (active comparator) and placebo, and that they could tolerate the alprazolam 2-mg doses. Participants received single-oral doses of alprazolam 2 mg and placebo in a crossover manner 24 hours apart, and if they could discriminate between the two medications, they continued to the treatment phase. The treatment phase was a double-blind, active- and placebo-controlled, 6-way crossover design where participants were randomized equally to a single oral dose of 1 of 6 treatments: placebo, alprazolam (1.5 and 3 mg), and Compound (1) (30, 60, and 90 mg). The Compound (1) doses were based on the results from the first part, dose selection, and treatments were separated by 7 days. The follow-up phase was a 1-day visit occurring 7 (2) days after the treatment phase.
Safety and tolerability endpoints included the frequency and severity of AEs and SAEs, the change from baseline in clinical laboratory assessments, vital signs, and ECG, and suicidality assessed by the Columbia-Suicide Severity Rating Scale (C-SSRS).
The dose selection safety set included all participants who received 1 dose of Compound (1). The main study qualification safety set included all participants who received ≥1 dose of alprazolam. For the treatment phase, the randomized set included all participants who were randomized and the safety set included all participants who received ≥1 dose of Compound (1) or alprazolam. The completer set included all participants in the randomized set who completed all treatment periods, had sufficient data for evaluation of the primary endpoint, and had ≥1 observation within 2 hours of Tmax for each treatment for Drug Liking VAS scores. […] The PK set included all participants in the treatment phase who received 1 dose of Compound (1) and had 1 PK sample after dosing.

[3] = Alprazolam 1.5 mg - placebo (study validity)
[4] = Alprazolam 3 mg - placebo (study validity)

**Q.** What does the source list for Cc1nnc2n1-c1ccc(Cl)cc1C(c1ccccc1)=NC2 [Alprazolam, alprazolam, reference compound]?
**A.** Drug Liking Emax difference ([1]; Alprazolam 1.5 mg - placebo): 22.50; Overall Drug Liking Emax difference ([1]; Alprazolam 1.5 mg - placebo): 24.00; Take Drug Again Emax difference ([1]; Alprazolam 1.5 mg - placebo): 24.00; Bad Drug Effects Emax difference [1, 3]: 0.00; Good Drug Effects Emax difference [1, 3]: 49.00; High Effects Emax difference [1, 3]: 43.80; Drug Liking Emax difference ([1]; Alprazolam 3 mg - placebo): 25.52; Overall Drug Liking Emax difference ([1]; Alprazolam 3 mg - placebo): 26.00; Take Drug Again Emax difference ([1]; Alprazolam 3 mg - placebo): 29.00; Bad Drug Effects Emax difference [1, 4]: 1.00; Good Drug Effects Emax difference [1, 4]: 53.47; High Effects Emax difference [1, 4]: 51.65; Drug Similarity: Placebo Similarity median score ([1]; all dosages, 12 hours postdose): zero; Drug Similarity: Benzodiazepines Similarity median score ([1]; alprazolam 1.5 mg): 92.5; Drug Similarity: Opioids Similarity median score ([1]; alprazolam 3 mg): 40.0; Back pain (TEAE) ([2]; Alprazolam 1.5 mg (n = 71)): 0 n; Confusional state (TEAE) ([2]; Alprazolam 1.5 mg (n = 71)): 0 n; Fine motor skill dysfunction (TEAE) ([2]; Alprazolam 1.5 mg (n = 71)): 0 n; Hiccups (TEAE) ([2]; Alprazolam 1.5 mg (n = 71)): 0 n; Irritability (TEAE) ([2]; Alprazolam 1.5 mg (n = 71)): 0 n; Swelling face (TEAE) ([2]; Alprazolam 1.5 mg (n = 71)): 0 n; Tremor (TEAE) ([2]; Alprazolam 1.5 mg (n = 71)): 0 n; Feeling drunk (TEAE) ([2]; Alprazolam 3 mg (n = 66)): 0 n; Fine motor skill dysfunction (TEAE) ([2]; Alprazolam 3 mg (n = 66)): 0 n; Irritability (TEAE) ([2]; Alprazolam 3 mg (n = 66)): 0 n; Swelling face (TEAE) ([2]; Alprazolam 3 mg (n = 66)): 0 n; Tremor (TEAE) ([2]; Alprazolam 3 mg (n = 66)): 0 n; Upper respiratory tract infection (TEAE) ([2]; Alprazolam 3 mg (n = 66)): 0 n
